Measured values reported in patent US20240270724A1, “GALECTIN-3 INHIBITING C-GLYCOSIDES” (GLYCOMIMETICS, INC., priority 2021, published 2024).

Tests used:
[1] = biological target: T1, galectin-3 (Homo sapiens, UniProt P17931); assay: Galectin-3 activity ELISA assay: inhibition of galectin-3 binding to immobilized Galβ1-3GlcNAc polymer; conditions: inhibition of galectin-3 binding to Galβ1-3GlcNAc polymer, average (± standard deviation) where assayed more than once
T1 construct: purchased IBL IBATGP0414
T1 sequence (P17931 whole entry): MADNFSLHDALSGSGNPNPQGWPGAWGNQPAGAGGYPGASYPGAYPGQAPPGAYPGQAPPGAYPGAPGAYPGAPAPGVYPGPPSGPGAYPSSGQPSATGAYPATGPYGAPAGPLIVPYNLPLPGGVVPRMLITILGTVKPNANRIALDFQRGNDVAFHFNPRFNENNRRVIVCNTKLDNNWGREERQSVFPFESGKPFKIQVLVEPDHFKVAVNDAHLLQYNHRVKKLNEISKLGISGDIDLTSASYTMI
From the text: An inhibition assay may be used to screen for antagonists of galectin-3. For example, an assay may be performed to characterize the capability of a compound described herein to inhibit interaction of galectin-3 with a Galβ1-3GlcNAc carbohydrate structure. The inhibition assay may be a competitive binding assay, which allows the determination of IC50 values. By way of example, a Galβ1-3GlcNAc polymer may be immobilized onto a matrix; a composition may be added to reduce nonspecific binding; the immobilized Galβ1-3GlcNAc polymer may be contacted with the candidate compound in the presence of galectin-3 group under conditions and for a time sufficient to permit galectin-3 to bind to the immobilized Galβ1-3GlcNAc polymer; the immobilized Galβ1-3GlcNAc polymer may be washed; and the amount of galectin-3 bound to the immobilized Galβ1-3GlcNAc polymer may be detected. Variations of such steps can be readily and routinely accomplished by a person of ordinary skill in the art.
Galectin-3 antagonists were evaluated for their ability to inhibit binding of galectin-3 to a Galβ1-3GlcNAc carbohydrate structure. The detailed protocol was as follows. A 1 μg/mL suspension of a Galβ1-3GlcNAcβ1-3Galβ1-4GlcNAcβ-PAA-biotin polymer (Glycotech, catalog number 01-096) was prepared. A 100 μL aliquot of the polymer was added to the wells of a 96-well streptavidin-coated plate (R&D Systems, catalog number CP004). A 100 μL aliquot of 1× Tris Buffered Saline (TBS, Sigma, catalog number T5912-10X) was added to control wells. The polymer was allowed to bind to the streptavidin-coated wells for 1.5 hours at room temperature. The contents of the wells were discarded, and 200 μL of 1×TBS containing 1% bovine serum albumin (BSA) was added to each well as a blocking reagent and the plate was kept at room temperature for 30 minutes. The wells were washed three times with 1×TBS containing 0.1% BSA. A serial dilution of test compounds was prepared in a separate V-bottom plate (Corning, catalog number 3897). A 75 μL aliquot of the highest concentration of the compound to be tested was added to the first well in a column of the V-bottom plate, then 15 μL were serially transferred into 60 μL 1×TBS through the remaining wells in the column to generate a 1 to 5 serial dilution. A 60 μL aliquot of 2 μg/mL galectin-3 (IBL, catalog number IBATGP0414) was added to each well in the V-bottom plate. A 100 μL aliquot of the galectin-3 test compound mixture was transferred from the V-bottom plate into the assay plate containing the Galβ1-3GlcNAc polymer. Four sets of control wells in the assay plate were prepared in duplicate containing 1) both Galβ1-3GlcNAc polymer and galectin-3, 2) neither the polymer nor galectin-3, 3) galectin-3 only, no polymer, or 4) polymer only, no galectin-3. The plate was gently rocked for 1.5 hours at room temperature. The wells were washed four times with TBS/0.1% BSA. A 100 μL aliquot of anti-galectin-3 antibody conjugated to horse radish peroxidase (R&D Systems, from DGAL30 kit) was added to each well, and the plate was kept at room temperature for 1 hour. The wells were washed four times with TBS/0.1% BSA. A 100 μL aliquot of TMB substrate solution was added to each well. The TMB substrate solution was prepared by making a 1:1 mixture of TMB Peroxidase Substrate (KPL, catalog number 5120-0048) and Peroxidase Substrate Solution B (KPL, catalog number 5120-0037). The plate was kept at room temperature for 10 to 20 minutes. The color development was stopped by adding 100 uL 10% phosphoric acid (RICCA Chemical Co., catalog number 5850-16). The absorbance at 450 nm (A450) was measured using a FlexStation 3 plate reader (Molecular Devices). Plots of A450 versus test compound concentration and IC50 determinations were made using GraphPad Prism 6. The number of assays run (n) for each compound is recorded in the following table.

[2] = biological target: T2, carbohydrate recognition domain of human galectin-3 (Galectin-3-CRD) (Homo sapiens, UniProt P17931); assay: Galectin-3 activity microscale thermophoresis assay; assay type: binding; conditions: label-free MST, 20 nM galectin-3-CRD; average of all assays (± standard deviation), each assay in triplicate
T2 construct: The carbohydrate recognition domain of human galectin-3 (Servesto Galectin-3-CRD) was diluted; purchased Servesto
T2 sequence (P17931 118-248 limits assumed): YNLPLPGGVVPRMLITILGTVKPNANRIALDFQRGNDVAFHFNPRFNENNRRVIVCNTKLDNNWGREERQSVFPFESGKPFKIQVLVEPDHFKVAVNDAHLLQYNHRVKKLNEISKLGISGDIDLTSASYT
Description: The carbohydrate recognition domain of human galectin-3 (Servesto Galectin-3-CRD) was diluted with PBS+0.1% F127 to 40 nM. Separately, a 40 uM stock of Compound 45 in DMSO was diluted down to 4 uM in PBS+0.1% F127 and serially diluted in sixteen steps using a dilution factor of 1 to 2 in 10% DMSO+PBS+0.1% F127. To each sample in the serial dilution of Compound 45, 10 ul of 40 nM Galectin-3-CRD was added, yielding final concentrations of 20 nM galectin-3-CRD and 5% DMSO+PBS+0.1% F127. NT.LabelFree Zero background Standard Treated Capillaries were filled with the prepared solutions then loaded into the Monolith NT Label-Free MST instrument. The reaction was measured with 100% excitation power of LED and medium (40%) MST power. Binding curves and Kd values were generated using MO affinity analysis. Each assay was run in triplicate. Some compounds were subjected to more than one assay run in triplicate.

Structure (SMILES)	IC50 [1] [nM]	Kd [2] [nM]
COCCCNC(=O)[C@@H](OCc1ccc(Br)cc1)[C@@H]1OC(CO)[C@H](O)C(n2cc(-c3cc(F)c(F)c(F)c3)nn2)C1OC (stereo partly shown) [Compound 20]	265	36
COCCCNC(=O)[C@@H](OCc1ccc(Cl)cc1)[C@@H]1OC(CO)[C@H](O)C(n2cc(-c3cc(F)c(F)c(F)c3)nn2)C1OC (stereo partly shown) [Compound 85, reference compound]	397	12
COC1C(n2cc(-c3cc(F)c(F)c(F)c3)nn2)[C@@H](O)C(CO)O[C@H]1[C@H](OCc1ccc(Br)cc1)C(=O)NC1CC1 (stereo partly shown) [Compound 49]	116	18
COC1C(n2cc(-c3cc(F)c(F)c(F)c3)nn2)[C@@H](O)C(CO)O[C@H]1[C@H](OCc1ccc(Br)cc1)C(=O)NCCO (stereo partly shown) [Compound 70]	192	20
COC1C(n2cc(-c3cc(F)c(F)c(F)c3)nn2)[C@@H](O)C(CO)O[C@H]1[C@H](OCc1ccc(Br)cc1)C(=O)O (stereo partly shown) [Compound 76]	470	31
[2H]C([2H])([2H])OC1C(n2cc(-c3cc(F)c(F)c(F)c3)nn2)[C@@H](O)C(CO)O[C@H]1[C@H](OCc1ccc(Br)cc1)C(=O)NC1(C(F)(F)F)CC1 (stereo partly shown) [Compound 51]	702	17
[2H]C([2H])([2H])OC1C(n2cc(-c3cc(F)c(F)c(F)c3)nn2)[C@@H](O)C(CO)O[C@H]1[C@H](OCc1ccc(Cl)cc1)C(=O)NC(C)C (stereo partly shown) [Compound 88, reference compound]	416	67
[2H]C([2H])([2H])OC1C(n2cc(-c3cc(F)c(F)c(F)c3)nn2)[C@@H](O)C(CO)O[C@H]1[C@H](OCc1ccc(Br)cc1)C(=O)NC1(C)CC1 (stereo partly shown) [Compound 50]	201	10
[2H]C([2H])([2H])OC1C(n2cc(-c3cc(F)c(F)c(F)c3)nn2)[C@@H](O)C(CO)O[C@H]1[C@H](OCc1ccc(Br)cc1)C(=O)NC1CC1(F)F (stereo partly shown) [Compound 62]	826	11
COC1C(n2cc(-c3cc(F)c(F)c(F)c3)nn2)[C@@H](O)C(CO)O[C@H]1[C@H](OCc1ccc(Br)cc1)C(=O)N[C@@H](C)C(F)(F)F (stereo partly shown) [Compound 73]	182	8
[2H]C([2H])([2H])OC1C(n2cc(-c3cc(F)c(F)c(F)c3)nn2)[C@@H](O)C(CO)O[C@H]1[C@H](OCc1ccc(Br)cc1)C(=O)NC(C)(C)C (stereo partly shown) [Compound 48]	972	46
